Consider one substance from patent publication US7129211B2, “Adipocyte Insulin adpinsl with Insulin A and B chains and an effective method of treating type 2 diabetes in a subject using adipocyte insulin” (Council of Scientific and Industrial Research, priority 2002, dated 2006).

The test system of one assay is carp adipocytes. As to the kind of experiment: Determination of insulin activity in vitro: D-14C-glucose uptake by adipocytes. Type of assay: cell-based, carp Catla catla. How it is done: (b) Effect of AdpInsl and porcine insulin (PI) on glucose uptake by carp adipocytes. Adipocytes 1×10^5 cells/incubation, suspended in MEM containing 1% fetal calf serum and preincubated for 2 hours in the absence of insulin, after addition of D-^14C-glucose uptake was determined by the procedure described under the “Experimental procedures”. *p<0.05 when AdpInsl is compared with porcine insulin.
Determination of insulin activity in vitro—Freshly prepared adipocytes were suspended in the MEM and after 2 h 1.0 microCi of D-(^14C) glucose (final concentration 25 uM| containing was added to the adipocyte incubation. 25 ng/ml of AdpInsl or porcine insulin was added to the incubation and uptake of glucose was measured by following a previously described method (21). Initial rates of glucose uptake was determined from the incubation of adipocyte without insulin. The reaction was stopped at 3 min by washing the cells three times with ice cold MEM in the presence of 0.3 mM phloretin to correct the glucose uptake data from simple diffusion and nonspecific trapping of radioactivity.

For assay [1], the system named is streptozotocin induced diabetic rat. The experiment in a line: Biological activity of purified adipocyte insulin on streptozotocin induced diabetic rat. Type of assay: in vivo. On the procedure:
FIG. 5. Determination of biological activity of purified adipocyte insulin on streptozotocin induced diabetic rat. (a) The male Sprague Dawley rats of 100–150 g weight were selected for streptozotocin (STZ) treatment. […] (A) STZ untreated rats, only vehicle (0.9% saline) injected (n-6), (B) STZ rat, vehicle injected (n-6), (C) STZ rat injected with AdpInsl 10 μg/100 g body wt of rat (n-6). (D) STZ rat injected with 10 ug/100 g body wt of rat (n=6J porcine insulin. Each value is ±SEM of 6 observations. p<0.001 when C is compared with B,**p<0.05 when C is compared with D.
Insulin injection-Adipocyte IR-insulin (20 ug per 100 gm body weight) from incubation medium or 10 ug AdpInsl or porcine insulin was intraperitoneally injected into the male Sprague Dawley rats weighing between 100–150 g. After 6 hrs of injection blood was collected by retroorbital puncture using capillary tube, centrifuged to collect plasma and glucose content was determined by glucose-glucose oxidase method.

“Also recorded” adds a separate entry of the source.

Consider “AdpInsl: Insulin purified from Catla catla carp adipocytes, A chain SEQ ID No. 1 (21 aa), B chain SEQ ID No. 2 (30 aa) (chain 1 GIVEQCCHKPCSIFELQNYCN; chain 2 PGAPQHLCGSHLVDALYLVCGPTGFFYNPK; listed as Catla catla)”, for which the “increase in glucose uptake by adipocyte” value in the assay on carp adipocytes (25 ng/ml insulin, 1x10^5 cells/incubation, uptake stopped at 3 min) is “more than 2 fold”. Also, the “stimulation of glucose uptake compared with porcine insulin” value in the assay with carp adipocytes (25 ng/ml of each insulin, p<0.05) is on record as “significantly higher; also recorded: more actively than porcine insulin”. In addition, the “hypoglycemic activity greater than porcine insulin” value in assay [1] (STZ rat, 10 ug/100 g body wt each insulin, p<0.05) is on record as 25%. Besides, the hyperglycemia entry in assay [1] (STZ rat, 10 ug/100 g body wt i.p., 6 hrs, p<0.001 compared with control) is on record as “significantly reduced hyperglycemia”. Also, in assay [1] (streptozotocin induced diabetic rat), the “hypoglycemic effect compared to porcine insulin” value is listed as “significantly stronger hypoglycemic effect”.
